Test results from US10111885B2, “Compositions and therapeutic methods for the treatment of complement-associated diseases” (Resverlogix Corp., priority 2015, dated 2018).
Like-named read-outs stand apart in the source and are kept apart here.

How the values were obtained:
C3 mRNA = test: Complement gene mRNA expression, TaqMan real-time PCR, HepG2 cells; assay type: cell-based, human; settings: for IC50: Homo sapiens
Text: (§1) In this example, mRNA levels from cultured cells were quantitated. The assay can be used to determine the effect of compound(s) on regulating mRNA levels, including those compounds in the present invention. Complement genes are expressed at high endogenous levels, but their expression can also be stimulated with various cytokines in inflammatory conditions. Experiments in this example target both basal and inflammatory complement gene expression. Compound mediated changes in gene expression and resulting mRNA levels are presented in Tables 2, 3 and 4 as well as FIGS. 1, 2, 3 and 4 below.
(§2) Huh-7 and HepG2 cells are liver-derived cell lines and are models for what can occur in the liver. Huh-7 cells (JCRB Cell Bank) were introduced to 96-well plates (^˜2.5×10^5 per well) in 100 μL DMEM containing 10% (v/v) FBS, 100 U/mL penicillin, 100 ug/mL streptomycin and 5 ug/mL plasmocin (all reagents from Gibco, except for the former, which was obtained from Invivogen). After 24 h, Huh-7 cells were treated with compounds in the same media formulation used for plating, and supplemented with 0.1% DMSO for the amount of time indicated in tables 2, 3, and 4. For select experiments, 24 h post-plating, cells were treated with cytokines and the compound of interest simultaneously, for a total treatment time of 48 h. Alternatively, 24 h after plating, cells were pre-treated with cytokines for 24 h before adding the compound of interest for 48 h. HepG2 cells (ATCC) were cultured in 96-well plates (^˜2.5×10^5 per well) in MEM containing 10% FBS, 1× non-essential amino acids, 1 mM sodium pyruvate, 2 mM L-glutamine, 100 U/mL penicillin, 100 ug/mL streptomycin and 5 ug/mL plasmocin. Serum amount was reduced to 0.5% for treatments with compound or cytokines. Timing of treatment of HepG2 cells with compounds and cytokines was as described for Huh-7 cells. Primary human hepatocytes (CellzDirect/Life Technologies) were plated in collagen coated 96-well plates at 70 000 cells/well, then overlaid with Matrigel™ as recommended by the supplier. Cells were treated with compounds of interest and/or cytokines for the indicated time points in the recommended media supplemented with 0.1% DMSO and 10% FBS (v/v). Cells were harvested by mRNA Catcher PLUS Kit (Life Technologies) followed by real-time PCR using the RNA UltraSense One-Step qRT-PCR System. The level of the mRNA of interest was measured by TaqMan real-time PCR relative to the endogenous control cyclophilin A in the same sample. Data were acquired using the ViiA-7 Real Time PCR System (Applied Biosystems).
Downregulation of expression of components of the complement cascade will result in reduced activity of the pathway and thus will constitute a positive result. Tables 2 and 3 list the concentration of compounds at which the level of the indicated mRNA is reduced by 50%, as well as the duration of treatment with compound. Table 4 lists the maximum reduction in the indicated mRNA measured in primary human hepatocytes treated with compounds for up to 72 hours. FIGS. 1, 2, 3 and 4 show effects of compounds on cytokine-induced (i.e. inflammatory) expression of complement genes in Huh-7 cells and HepG2 cells.

complement C5 protein = test: Secreted complement protein ELISA, HepG2 cells; assay type: cell-based, human; settings: HepG2, 72 h, ± standard deviation
Experimental: (§3) In this example, protein secretion from cells grown in culture in the presence of compound of interest was analyzed by enzyme linked immunosorbent assay (ELISA). In some cases, cultured cells were treated with cytokines and the compound of interest to mimic an inflammatory state. The method can be used to determine the effect of compounds, including those in the present invention, on the secretion of specific proteins from cells grown in culture under basal and cytokine stimulated (i.e. inflammatory) conditions (Table 7, FIGS. 5 and 6).
(§4) Huh-7 cells (JCRB Cell Bank) were introduced to 24-well plates in 500 μL DMEM supplemented with 10% (v/v) FBS, 100 U/mL penicillin, 100 ug/mL streptomycin and 5 ug/mL plasmocin (all reagents from Gibco, except for the former, which comes from Invivogen) at 200 000 cells/well. After 24 h, cells were treated with the compound of interest and/or cytokines in DMEM with 10% FBS containing 0.1% DMSO for a total treatment time of 72 h. Fresh media containing compounds and/or cytokines was introduced in the final 24 h of the experiment. At harvest, media were collected, debris was removed by brief centrifugation, and ELISA assays for the indicated proteins were performed as per the manufacturer's protocol. To correct for differences in cell numbers, values obtained for complement proteins were normalized to values for transferrin. HepG2 cells (ATCC) were cultured in MEM containing 10% FBS, 1× non-essential amino acids, 1 mM sodium pyruvate, 2 mM L-glutamine, 100 U/mL penicillin, 100 ug/mL streptomycin and 5 ug/mL plasmocin. Serum amount was reduced to 0.5% when compounds were present. Treatment combinations and timing were as described above for Huh-7 cells. Primary human hepatocytes (CellzDirect/Life Technologies) were plated in collagen coated 96-well plates at 70 000 cells/well, then overlaid with Matrigel™ as recommended by the supplier. Cells were treated with compounds of interest with or without the indicated cytokines for a total of 72 h in the recommended media supplemented with 10% FBS and 0.1% DMSO (v/v). Media were collected for measurements of secreted proteins.
(§5) The ELISA kits for detection of complement C3, C4, C5 and C9 were obtained from AssayPro (St. Charles, Mo.), while the ELISA reagents for transferrin detection were from Bethyl Laboratories (Montgomery, Tex.). Data were collected on a Thermo Scientific Multiskan GO apparatus. Downregulation of expression of components of the complement cascade will result in reduced activity of the pathway and thus will constitute a positive result.

complement C4 protein = test: Secreted complement protein ELISA, HepG2 cells; assay type: cell-based, human; settings: HepG2, 72 h, ± standard deviation
Experimental: as §3, §4, §5

complement C3 protein = test: Secreted complement protein ELISA, HepG2 cells; assay type: cell-based, human; settings: HepG2, 72 h, ± standard deviation
Experimental: as §3, §4, §5

MBL2 mRNA [1] = test: Complement gene mRNA expression, TaqMan real-time PCR, Huh-7 cells; assay type: cell-based; settings: Homo sapiens; Huh-7, 48 h treatment; read-out: MBL2 (48 h) mRNA, half maximal inhibitory concentration (IC50)
Text: as §1
as §2, with “Data were acquired using the ViiA-7 Real Time PCR System (Applied Biosystems).” left out
(§6) Downregulation of expression of components of the complement cascade will result in reduced activity of the pathway and thus will constitute a positive result. […] Table 4 lists the maximum reduction in the indicated mRNA measured in primary human hepatocytes treated with compounds for up to 72 hours. […]

C1S mRNA [2] = test: as above; assay type: cell-based; settings: Homo sapiens; Huh-7, 48 h treatment; read-out: C1S (48 h) mRNA, half maximal inhibitory concentration (IC50)
Text: as §1
as §2, with “Data were acquired using the ViiA-7 Real Time PCR System (Applied Biosystems).” left out
as §6

MBL2 mRNA [3] = test: Complement gene mRNA expression, TaqMan real-time PCR, HepG2 cells; assay type: cell-based; settings: Homo sapiens; HepG2, 48 h treatment; read-out: MBL2 (48 h) mRNA, half maximal inhibitory concentration (IC50)
Text: as §1
as §2, with “Data were acquired using the ViiA-7 Real Time PCR System (Applied Biosystems).” left out
as §6

C1S mRNA [4] = test: as above; assay type: cell-based; settings: Homo sapiens; HepG2, 48 h treatment; read-out: C1S (48 h) mRNA, half maximal inhibitory concentration (IC50)
Text: as §1
as §2, with “Data were acquired using the ViiA-7 Real Time PCR System (Applied Biosystems).” left out
as §6

[5] = HepG2, 72 h, read-out: C3 (72 h) mRNA, half maximal inhibitory concentration (IC50)

Cc1sc2c(c1C)C(c1ccc(Cl)cc1)=N[C@@H](CC(=O)OC(C)(C)C)c1nnc(C)n1-2 [JQ1, (S)-tert-butyl 2-(4-(4-chlorophenyl)-2,3,9-trimethyl-6H-thieno[3,2-f][1,2,4]triazolo[4,3-a][1,4]diazepin-6-yl)acetate, reference compound]
IC50 (C3 mRNA; HepG2, 48 h, read-out: C3 (48 h) mRNA, half maximal inhibitory concentration (IC50)): 200 nM
IC50 (C3 mRNA; [5]): 490 nM
C5 secretion, percent maximum reduction in protein levels (complement C5 protein; 0.75 uM): 82 ± 7%
C4 secretion, percent maximum reduction in protein levels (complement C4 protein; 0.75 uM): 81 ± 9%
C3 secretion, percent maximum reduction in protein levels (complement C3 protein; 0.75 uM): 54 ± 5%
IC50 (MBL2 mRNA [1]): 160 nM
IC50 (C1S mRNA [2]): 300 nM
IC50 (MBL2 mRNA [3]): 30 nM
IC50 (C1S mRNA [4]): 120 nM

COc1cc(OC)c2c(=O)[nH]c(-c3cc(C)c(OCCO)c(C)c3)nc2c1 [RVX000222, 2-(4-(2-hydroxyethoxy)-3,5-dimethylphenyl)-5,7-dimethoxyquinazolin-4(3H)-one]
expression of complement component 3 at the mRNA level (FIG. 4) (C3 mRNA; HepG2 pre-treated with cytokines): reduces expression
expression of complement component 3 at the mRNA level (FIG. 2) (C3 mRNA; HepG2 treated simultaneously with cytokines): reduces expression
IC50 (C3 mRNA; [5]): 25000 nM
C5 secretion, percent maximum reduction in protein levels (complement C5 protein; 30 uM): 77 ± 4%
C4 secretion, percent maximum reduction in protein levels (complement C4 protein; 30 uM): 65 ± 5%
C3 secretion, percent maximum reduction in protein levels (complement C3 protein; 30 uM): 34 ± 5%
IC50 (MBL2 mRNA [1]): 16300 nM
IC50 (C1S mRNA [2]): 18900 nM
IC50 (MBL2 mRNA [3]): 3880 nM
IC50 (C1S mRNA [4]): 9560 nM
